pIC50: −log10 of the molar value.
Target: Polyunsaturated fatty acid 5-lipoxygenase (Cavia porcellus)
Assay: In vitro inhibition of polymorphonuclear leukocyte derived guinea pig 5-lipoxygenase

SMILES	pIC50
O=C(CCCc1ccccc1)N(O)CCc1ccccc1	6.89
O=C(c1ccc(OCc2ccccc2)cc1)N(O)CCc1ccccc1	7.30
